In ChEMBL document CHEMBL1133307, “Synthesis of 5-substituted analogues of huperzine A” (Bioorg Med Chem Lett, 2000):

Columns and labels:
[1] = target: Acetylcholinesterase (Homo sapiens) (UniProt P22303); assay: Percent inhibition against acetylcholinesterase (ACHE) at a concentration of 88 uM
[2] = target: Acetylcholinesterase (Homo sapiens) (UniProt P22303); assay: Percent inhibition against acetylcholinesterase (ACHE) at a concentration of 47 uM
[3] = target: Acetylcholinesterase (Homo sapiens) (UniProt P22303); assay: Percent inhibition against acetylcholinesterase (ACHE) at a concentration of 35 uM

Chain of Acetylcholinesterase (Homo sapiens) (P22303 whole entry): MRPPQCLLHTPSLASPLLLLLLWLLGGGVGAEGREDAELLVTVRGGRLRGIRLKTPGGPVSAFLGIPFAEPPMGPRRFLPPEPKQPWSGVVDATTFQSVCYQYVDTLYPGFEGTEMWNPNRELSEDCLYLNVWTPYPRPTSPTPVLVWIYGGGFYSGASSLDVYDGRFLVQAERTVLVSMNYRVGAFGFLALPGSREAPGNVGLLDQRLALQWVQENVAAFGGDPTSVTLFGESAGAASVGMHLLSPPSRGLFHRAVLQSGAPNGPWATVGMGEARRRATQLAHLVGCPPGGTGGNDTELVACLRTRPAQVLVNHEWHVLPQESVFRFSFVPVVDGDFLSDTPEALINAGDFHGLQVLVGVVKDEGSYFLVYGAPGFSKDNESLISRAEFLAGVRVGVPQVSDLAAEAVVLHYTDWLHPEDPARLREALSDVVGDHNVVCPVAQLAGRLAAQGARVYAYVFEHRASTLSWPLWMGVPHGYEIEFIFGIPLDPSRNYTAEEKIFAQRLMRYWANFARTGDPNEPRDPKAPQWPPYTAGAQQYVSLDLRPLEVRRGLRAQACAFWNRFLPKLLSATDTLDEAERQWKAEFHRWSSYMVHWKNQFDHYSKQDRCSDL

C/C=C1\C2C=C(C)CC1(OC(C)=O)c1ccc(O)nc1C2 (stereo not drawn)
inhibition [1]: 6.36%

C/C=C1\C2C=C(C)CC1(F)c1ccc(O)nc1C2 (stereo not drawn)
inhibition [2]: 50%

C/C=C1\C2C=C(C)CC1(O)c1ccc(O)nc1C2 (stereo not drawn)
inhibition [3]: 50%
